Structures can show the parent of a compound that is named as a salt.
melting point [°C] | SMILES
90 to 92 | CN/C(=N/c1cc(C)c(C(=O)OCc2ccccc2C)cc1C)OC
172 to 176 | CCN(C)/C=N/c1ccc(C(=O)OCc2cccc(C(F)(F)F)c2)c(C)c1C (as salt: hydrochloride)
